In US20240067693A1, “POLYPEPTIDES AND USES THEREOF” (MEDIMMUNE LIMITED, priority 2020, published 2024):
Numbered stars: 1 amine (or outer) side, 2 acyl side, 3 side chain; on linkers, the order of the positions; unused ones are H or OH. Bridge positions count the residues as written; N and C are the ends. Square brackets hold non-standard residues; d marks the D form. Side chains are listed from the residue outwards. Peptide text beside a SMILES is read from it. * marks the point of attachment. C18 diacid = O=C(O)CCCCCCCCCCCCCCCCC(=O)*; γGlu = O=C(O)[C@H](CCC(=O)[*:2])N[*:1]; αMeF = C[C@](N)(Cc1ccccc1)C(=O)O

Experiments:
[1] = Thioflavin T fibrillation assay; format: physicochemical; conditions: ThT fibrillation assay; peptide 1 mg/mL in 25 mM sodium acetate buffer pH 4.0; 6 days at 37 °C with shaking; >144 h = no increase
How it was run: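 Peptides at 1 mg/mL in 25 mM sodium acetate pH 4.0 with ThT (from 0.25 mM stock), incubated 6 days at 37 °C with intermittent orbital shaking at 500–750 rpm. Fluorescence (ex 444/em 480 nm) read every 30 min; value is average time to a rise in baseline-corrected signal.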

[2] = molecular target: T1, rat calcitonin receptor (rat CTR) (Rattus norvegicus, UniProt P32214); experiment: cAMP production in HEK cells with stable recombinant expression of rat calcitonin receptor (rat CTR); format: cell-based; conditions: assay buffer with 0.1% BSA
T1 construct: expressed in transfected cells
T1 sequence (P32214 25-516): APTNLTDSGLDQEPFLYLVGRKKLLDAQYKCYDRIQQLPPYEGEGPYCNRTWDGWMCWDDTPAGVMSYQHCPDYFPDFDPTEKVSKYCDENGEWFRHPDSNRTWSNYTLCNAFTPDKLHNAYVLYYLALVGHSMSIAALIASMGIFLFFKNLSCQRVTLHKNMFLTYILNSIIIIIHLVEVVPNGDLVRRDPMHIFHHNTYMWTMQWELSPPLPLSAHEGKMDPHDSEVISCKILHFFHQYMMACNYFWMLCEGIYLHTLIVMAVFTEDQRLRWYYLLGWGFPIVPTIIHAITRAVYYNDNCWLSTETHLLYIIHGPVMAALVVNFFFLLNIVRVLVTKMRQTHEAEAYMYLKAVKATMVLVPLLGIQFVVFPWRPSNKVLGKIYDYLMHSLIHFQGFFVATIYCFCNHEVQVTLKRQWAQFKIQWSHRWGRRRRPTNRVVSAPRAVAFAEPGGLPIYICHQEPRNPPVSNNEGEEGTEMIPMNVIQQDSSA
How it was run: (§1)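 Receptor-expressing cells (human receptors in 1321N1, rat receptors in HEK) incubated 30 min at room temperature with peptide in HBSS/HEPES pH 7.4, 0.1% BSA, 0.5 mM IBMX. cAMP read by HTRF; EC50 from 4-parameter fit as % of maximal amylin or calcitonin response.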

[3] = molecular target: T2, rat amylin receptor (calcitonin receptor co-expressed with receptor activity modifying protein, RAMP3) (Rat AMYR3) (Rattus norvegicus, UniProt P32214+Q9JJ73); experiment: cAMP production in HEK cells with stable recombinant expression of rat amylin receptor (Rat AMYR3); format: cell-based; conditions: assay buffer with 0.1% BSA
T2 construct: expressed in transfected cells
T2 sequence (P32214 25-516): T1 sequence (P32214 25-516)
T2 sequence (Q9JJ73 23-147 partner): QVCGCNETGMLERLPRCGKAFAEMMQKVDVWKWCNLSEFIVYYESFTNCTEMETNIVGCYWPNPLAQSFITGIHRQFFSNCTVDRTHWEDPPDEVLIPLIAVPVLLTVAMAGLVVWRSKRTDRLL
How it was run: as §1

lean rats = experiment: Rat acute food intake study; format: in vivo; conditions: lean male Sprague Dawley rats, 20 nmol/kg subcutaneously
How it was run: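 Male Sprague Dawley rats (n=7/group), fasted 6 h, received 20 nmol/kg test compound or 60 nmol/kg pramlintide subcutaneously 30 min before food return at dark onset. Food intake recorded automatically in home cages over 3 days, binned hourly and analysed as cumulative dark-period intake; body weight taken daily.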

Compound	Time taken to detect increase in fluorescence intensity [1]	EC50 [2]	EC50 [3]	Cummulative food intake (% vehicle treated intake) At 12 h (lean rats)	Cummulative food intake (% vehicle treated intake) At 24 h (lean rats)	Cummulative food intake (% vehicle treated intake) At 48 h (lean rats)
CC[C@H](C)[C@H](NC(=O)[C@@H]1CCCN1C(=O)CNC(=O)[C@](C)(Cc1ccccc1)NC(=O)[C@H](CC(N)=O)NC(=O)[C@H](CC(N)=O)NC(=O)[C@H](CO)NC(=O)[C@H](CO)NC(=O)[C@H](Cc1c[nH]cn1)NC(=O)[C@H](CCCNC(=N)N)NC(=O)[C@H](CC(C)C)NC(=O)[C@H](Cc1ccccc1)NC(=O)[C@H](CCC(=O)O)NC(=O)[C@H](C)NC(=O)[C@H](CC(C)C)NC(=O)[C@H](CCCNC(=N)N)NC(=O)[C@H](CCC(N)=O)NC(=O)[C@@H](NC(=O)[C@H](C)NC(=O)[C@@H]1CSSC[C@H](NC(=O)[C@H](CCCCN)NC(=O)[C@@H](N)CCCCNC(=O)CC[C@H](NC(=O)CCCCCCCCCCCCCCCCC(=O)O)C(=O)O)C(=O)N[C@@H](CC(N)=O)C(=O)N[C@@H]([C@@H](C)O)C(=O)N[C@@H](C)C(=O)N[C@@H]([C@@H](C)O)C(=O)N1)[C@@H](C)O)C(=O)N[C@@H](CC(C)C)C(=O)N1CCC[C@H]1C(=O)N1CCC[C@H]1C(=O)N[C@H](C(=O)N[C@@H](CC(N)=O)C(=O)N[C@H](C(=O)NCC(=O)N[C@@H](CO)C(=O)N[C@@H](CC(N)=O)C(=O)N[C@H](C(=O)N[C@@H](Cc1ccc(O)cc1)C(N)=O)[C@@H](C)O)C(C)C)[C@@H](C)O [Peptide 12, K(γE-C18diacid)K[CNTATC]ATQRLAEFLRHSSNN(αMePhe)GPILPPTNVGSNTY-amide] (H-K([γGlu-C18 diacid])KCNTATCATQRLAEFLRHSSNN[αMeF]GPILPPTNVGSNTY-NH2; disulfide 3-8; N-terminus assumed)	>144 h	107 pM	5 pM	9.4 % vehicle treated intake	7.5 % vehicle treated intake	23.6 % vehicle treated intake
CC[C@H](C)[C@H](NC(=O)[C@@H]1CCCN1C(=O)CNC(=O)[C@](C)(Cc1ccccc1)NC(=O)[C@H](CC(N)=O)NC(=O)[C@H](CC(N)=O)NC(=O)[C@H](CO)NC(=O)[C@H](CO)NC(=O)[C@H](Cc1c[nH]cn1)NC(=O)[C@H](CCCNC(=N)N)NC(=O)[C@H](CC(C)C)NC(=O)[C@H](Cc1ccccc1)NC(=O)[C@H](CC(N)=O)NC(=O)[C@H](C)NC(=O)[C@H](CC(C)C)NC(=O)[C@H](CCCNC(=N)N)NC(=O)[C@H](CCC(N)=O)NC(=O)[C@@H](NC(=O)[C@H](C)NC(=O)[C@@H]1CSSC[C@H](NC(=O)[C@H](CCCCN)NC(=O)[C@@H](N)CCCCNC(=O)CC[C@H](NC(=O)CCCCCCCCCCCCCCCCC(=O)O)C(=O)O)C(=O)N[C@@H](CC(N)=O)C(=O)N[C@@H]([C@@H](C)O)C(=O)N[C@@H](C)C(=O)N[C@@H]([C@@H](C)O)C(=O)N1)[C@@H](C)O)C(=O)N[C@@H](CC(C)C)C(=O)N1CCC[C@H]1C(=O)N1CCC[C@H]1C(=O)N[C@H](C(=O)N[C@@H](CCC(=O)O)C(=O)N[C@H](C(=O)NCC(=O)N[C@@H](CO)C(=O)N[C@@H](CC(N)=O)C(=O)N[C@H](C(=O)N[C@@H](Cc1ccc(O)cc1)C(N)=O)[C@@H](C)O)C(C)C)[C@@H](C)O [Peptide 15, K(γE-C18diacid)K[CNTATC]ATQRLANFLRHSSNN(αMePhe)GPILPPTEVGSNTY-amide] (H-K([γGlu-C18 diacid])KCNTATCATQRLANFLRHSSNN[αMeF]GPILPPTEVGSNTY-NH2; disulfide 3-8; N-terminus assumed)	>144 h	1820 pM	10.3 pM	45.2 % vehicle treated intake	49.1 % vehicle treated intake	51 % vehicle treated intake
